Data reported in patent US4833134A, “Cephem compounds” (Takeda Chemical Industries, Ltd., priority 1986, dated 1989).
Where a name gives a salt, the structure may show the parent alone.

Columns and labels:
Escherichia coli T7 = experiment: MIC (minimum inhibitory concentration), agar dilution method; format: cell-based; settings: trypticase soy agar, ca. 10^8 CFU/ml, 37° C., 18 hours
Protocol: (§1) The MIC value of the test compound was determined by agar dilution method. More specifically, 1.0 ml of an aqueous solution of the test compound diluted serially was poured into a petri dish, to which were added 9.0 ml of trypticase soy agar, followed by mixing. On the mixed agar plate was spread a suspension of the test microorganism (ca. 10^8 CFU/ml), which was incubated at 37° C. for 18 hours. The lowest concentration of the test compound completely inhibiting the growth of the test microorganism was expressed by MIC (minimum inhibitory concentration).

[1] = tested on: Staphylococcus aureus 1840; experiment: as above; format: cell-based; settings: trypticase soy agar, ca. 10^8 CFU/ml, 37° C., 18 hours
Protocol: as §1
(1) Staphylococcus aureus 1840

CCON=C(C(=O)NC1C(=O)N2C(C(=O)[O-])=C(C[n+]3ccc(SCCCN)cc3)CSC12)c1csc(N)n1 (stereo not drawn) [Example 2, 7β-[2-(2-aminothiazol-4-yl)-(Z)-2-ethoxyiminoacetamido]-3-{[4-(3-aminopropylthio)-1-pyridinium]methyl}-3-cephem-4-carboxylate hydrochloride]
MIC (Escherichia coli T7): 0.2 µg/mL
MIC [1]: 0.78 µg/mL
